Reference: patent US12668600B2 (Kumquat Biosciences Inc., priority 2023, dated 2026)

Columns and labels:
Format in all cases: biochemical
KRAS G12D = molecular target: T1, KRAS G12D (Homo sapiens, UniProt P01116, G12D); experiment: HTRF KRAS-SOS1 interaction assay, KRAS G12D; details: binned ≤2 μM / >2 μM, read-out: Inhibition of KRAS G12D (IC50)
T1 construct: made in house; host or cells: E. coli, e.g. BL21 (DE3)
Source text: (§1) This assay can be also used to assess a selective inhibition or reduction of signaling output of a mutant Ras protein relative to a wildtype, or relative to a different mutant Ras protein. For example, the equilibrium interaction of wildtype KRAS or K-Ras mutant (e.g., wildtype or a mutant thereof) with SOS1 (e.g., hSOS1) can be assessed as a proxy or an indication for the ability of a subject compound to bind and inhibit Ras protein. The HTRF assay detects from (i) a fluorescence resonance energy transfer (FRET) donor (e.g., antiGST-Europium) that is bound to GST-tagged K-Ras mutant to (ii) a FRET acceptor (e.g., anti-6His-XL665) bound to a His-tagged hSOS1.
(§2) The assay buffer can contain ˜5 mM HEPES pH 7.4, ˜150 mM NaCl, ˜1 mM DTT, 0.05% BSA and 0.0025% (v/v) Igepal. A Ras working solution is prepared in an assay buffer containing typically a suitable amount of the protein construct (e.g., GST-tagged K-Ras mutant) and the FRET donor (e.g., antiGST-Eu (K) from Cisbio, France). A SOS1 working solution is prepared in an assay buffer containing suitable amount of the protein construct (e.g., His-hSOS1) and the FRET acceptor (e.g., anti-6His-XL665 from Cisbio, France). A suitable amount of the protein construct will depend on the range of activity or range of IC50 values being detected or under investigation. For detecting an IC50 within a range of 500 nM, the protein constructs of the same range of molarity can be utilized.
(§3) A fixed volume of DMSO with or without test compound is transferred into a 384-well plate. Ras working solution is added to all wells of the test plate. SOS1 working solution is added to all wells except for those that are subsequently filled with inhibitor control solution. Upon incubation for about 10 minutes or longer, the fluorescence is measured with a M1000Pro plate reader (Tecan) using HTRF detection (excitation 337 nm, emission 1:620 nm, emission 2:665 nm). Compounds are tested in duplicate at different concentrations (for example, 10 μM, 2.5 μM, 0.63 μM, 0.16 μM, 0.04 μM, 0.01 μM test compound). The ratiometric data (i.e., emission 2 divided by emission 1) is used to calculate IC50 values against Ras using GraphPad Prism (GraphPad software). Signaling output measured in terms of IC50 values can be obtained and a ratio of IC50 against one mutant relative to another mutant can be calculated.

KRAS WT = molecular target: T2, KRAS WT (Homo sapiens, UniProt P01116); experiment: HTRF KRAS-SOS1 interaction assay, wildtype KRAS; details: binned ≤2 μM / >2 μM, read-out: Inhibition of KRAS WT (IC50)
T2 construct: made in house; host or cells: E. coli, e.g. BL21 (DE3)
T2 sequence (P01116 1-188 isoform P01116-2): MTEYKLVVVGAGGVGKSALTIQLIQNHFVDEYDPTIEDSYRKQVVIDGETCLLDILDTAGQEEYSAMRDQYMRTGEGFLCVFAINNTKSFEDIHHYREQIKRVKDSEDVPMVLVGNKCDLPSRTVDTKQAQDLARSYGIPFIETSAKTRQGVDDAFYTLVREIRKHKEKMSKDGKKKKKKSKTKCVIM
Source text: as §1, §2, §3

KRAS G12V = molecular target: T3, KRAS G12V (Homo sapiens, UniProt P01116, G12V); experiment: HTRF KRAS-SOS1 interaction assay, KRAS G12V; details: binned ≤2 μM / >2 μM, read-out: Inhibition of KRAS G12V (IC50)
T3 construct: made in house; host or cells: E. coli, e.g. BL21 (DE3)
T3 sequence (P01116 1-188 isoform P01116-2 G12V): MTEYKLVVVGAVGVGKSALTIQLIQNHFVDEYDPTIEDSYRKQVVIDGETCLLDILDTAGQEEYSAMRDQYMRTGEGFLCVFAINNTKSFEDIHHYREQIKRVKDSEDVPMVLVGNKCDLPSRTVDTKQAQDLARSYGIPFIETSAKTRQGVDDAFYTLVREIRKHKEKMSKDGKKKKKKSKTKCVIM
Source text: as §1, §2, §3

KRAS G12S = molecular target: T4, KRAS G12S (Homo sapiens, UniProt P01116, G12S); experiment: HTRF KRAS-SOS1 interaction assay, KRAS G12S; details: binned ≤2 μM / >2 μM, read-out: Inhibition of KRAS G12S (IC50)
T4 construct: made in house; host or cells: E. coli, e.g. BL21 (DE3)
T4 sequence (P01116 1-188 isoform P01116-2 G12S): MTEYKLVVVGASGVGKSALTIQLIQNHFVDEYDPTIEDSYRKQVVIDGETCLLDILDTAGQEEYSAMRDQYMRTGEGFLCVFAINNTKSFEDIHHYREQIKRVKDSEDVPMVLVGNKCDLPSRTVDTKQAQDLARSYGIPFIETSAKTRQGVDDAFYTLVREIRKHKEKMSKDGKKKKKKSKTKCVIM
Source text: as §1, §2, §3

T1 sequence (P01116 1-188 isoform P01116-2 G12D): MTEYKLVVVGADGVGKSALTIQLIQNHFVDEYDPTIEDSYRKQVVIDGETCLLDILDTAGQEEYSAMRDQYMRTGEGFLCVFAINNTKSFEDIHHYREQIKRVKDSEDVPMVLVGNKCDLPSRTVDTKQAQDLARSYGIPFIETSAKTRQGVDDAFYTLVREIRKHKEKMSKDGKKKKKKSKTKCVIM

| IC50 (KRAS G12D) [nM] | IC50 (KRAS WT) [nM] | IC50 (KRAS G12V) [nM] | IC50 (KRAS G12S) [nM] | SMILES |
| --- | --- | --- | --- | --- |
| ≤ 2000 | ≤ 2000 | ≤ 2000 | ≤ 2000 | N#Cc1c(N)sc2c(F)ccc(-c3c(C(F)(F)F)c4c5c(nc(OC[C@@]67CCCN6C[C@H](F)C7)nc5c3F)N([C@H](CCC(F)(F)F)c3cccnc3N)CCO4)c12 (atropisomer, axis not shown; (aS)) [Compound 614, 2-amino-4-((S)-4-((R)-1-(2-aminopyridin-3-yl)-4,4,4-trifluorobutyl)-10-fluoro-2-(((2R,7aS)-2-fluorotetrahydro-1H-pyrrolizin-7a (5H)-yl)methoxy)-8-(trifluoromethyl)-5,6-dihydro-4H-[1,4]oxazepino[5,6,7-de]quinazolin-9-yl)-7-fluorobenzo[b]thiophene-3-carbonitrile] |
| ≤ 2000 | ≤ 2000 | ≤ 2000 | ≤ 2000 | C[C@H](c1cc(F)cnc1N)N1CCOc2c(C(F)(F)F)c(-c3ccc(F)c4sc(N)c(C#N)c34)c(F)c3nc(OCC4(CN5CC[C@@H](F)C5)CC4)nc1c23 [Compound 644, 2-amino-4-(4-((R)-1-(2-amino-5-fluoropyridin-3-yl)ethyl)-10-fluoro-2-((1-(((R)-3-fluoropyrrolidin-1-yl)methyl)cyclopropyl)methoxy)-8-(trifluoromethyl)-5,6-dihydro-4H-[1,4]oxazepino[5,6,7-de]quinazolin-9-yl)-7-fluorobenzo[b]thiophene-3-carbonitrile] |
| ≤ 2000 | ≤ 2000 | ≤ 2000 | ≤ 2000 | CN(C)CCC[C@H](c1cccnc1N)N1CCOc2c(C(F)(F)F)c(-c3ccc(F)c4sc(N)c(C#N)c34)c(F)c3nc(OC[C@@]45CCCN4C[C@H](F)C5)nc1c23 (single isomer, unassigned) [Compound 705] |
| ≤ 2000 | ≤ 2000 | ≤ 2000 | ≤ 2000 | N#Cc1c(N)sc2c(F)ccc(-c3c(C(F)(F)F)c4c5c(nc(OC[C@@]67CCCN6CC(=C(F)F)C7)nc5c3F)N([C@H](CCC(F)(F)F)c3cc(F)cnc3N)CCO4)c12 [Compound 640, 2-amino-4-(4-((R)-1-(2-amino-5-fluoropyridin-3-yl)-4,4,4-trifluorobutyl)-2-(((S)-2-(difluoromethylene)tetrahydro-1H-pyrrolizin-7a(5H)-yl)methoxy)-10-fluoro-8-(trifluoromethyl)-5,6-dihydro-4H-[1,4]oxazepino[5,6,7-de]quinazolin-9-yl)-7-fluorobenzo[b]thiophene-3-carbonitrile] |
| ≤ 2000 | ≤ 2000 | ≤ 2000 | ≤ 2000 | CC(Oc1nc2c3c(c(Cl)c(-c4ccc(F)c5sc(N)c(C#N)c45)c(F)c3n1)OCCN2[C@H](C)c1cccnc1N)[C@@H]1CC(F)(F)CN1C (single isomer, unassigned) [Compound 919] |
| ≤ 2000 | ≤ 2000 | ≤ 2000 | ≤ 2000 | C#Cc1c(F)ccc2cc(O)cc(-c3nc4c5c(nc(OC[C@@H]6CCCN6C)nc5c3F)N(C(C)c3cccnc3N)CCO4)c12 (single isomer, unassigned) [Compound 728] |
| ≤ 2000 | ≤ 2000 | ≤ 2000 | ≤ 2000 | N#Cc1c(N)sc2c(F)ccc(-c3c(C(F)(F)F)c4c5c(nc(OC[C@@]67CCCN6C[C@H](F)C7)nc5c3F)N([C@H](CCn3cccn3)c3cccnc3N)CCO4)c12 [Compound 829, 2-amino-4-(4-((R)-1-(2-aminopyridin-3-yl)-3-(1H-pyrazol-1-yl)propyl)-10-fluoro-2-(((2R,7aS)-2-fluorotetrahydro-1H-pyrrolizin-7a(5H)-yl)methoxy)-8-(trifluoromethyl)-5,6-dihydro-4H-[1,4]oxazepino[5,6,7-de]quinazolin-9-yl)-7-fluorobenzo[b]thiophene-3-carbonitrile] |
| ≤ 2000 | ≤ 2000 | ≤ 2000 | ≤ 2000 | C[C@H](Oc1nc2c3c(nc(-c4ccc(F)c5sc(N)c(C#N)c45)c(F)c3n1)OCCN2[C@H](C)c1cccnc1N)C1CCCN1C (single isomer, unassigned) [Compound 670] |
| ≤ 2000 | ≤ 2000 | ≤ 2000 | ≤ 2000 | C=C(F)[C@H](c1cccnc1N)N1CCOc2c(Cl)c(-c3ccc(F)c4sc(N)c(C#N)c34)c(F)c3nc(OC[C@@]45CCCN4C[C@H](F)C5)nc1c23 [Compound 694, 2-amino-4-(4-((S)-1-(2-aminopyridin-3-yl)-2-fluoroallyl)-8-chloro-10-fluoro-2-(((2R,7aS)-2-fluorotetrahydro-1H-pyrrolizin-7a(5H)-yl)methoxy)-5,6-dihydro-4H-[1,4]oxazepino[5,6,7-de]quinazolin-9-yl)-7-fluorobenzo[b]thiophene-3-carbonitrile] |
| ≤ 2000 | ≤ 2000 | ≤ 2000 | ≤ 2000 | C[C@H](c1cc(Cl)cnc1N)N1CCOc2c(C(F)(F)F)c(-c3ccc(F)c4sc(N)c(C#N)c34)c(F)c3nc(OC[C@@]45CCCN4CC(=C(F)F)C5)nc1c23 [Compound 793, 2-amino-4-(4-((R)-1-(2-amino-5-chloropyridin-3-yl)ethyl)-2-(((S)-2-(difluoromethylene)tetrahydro-1H-pyrrolizin-7a(5H)-yl)methoxy)-10-fluoro-8-(trifluoromethyl)-5,6-dihydro-4H-[1,4]oxazepino[5,6,7-de]quinazolin-9-yl)-7-fluorobenzo[b]thiophene-3-carbonitrile] |
| ≤ 2000 | ≤ 2000 | ≤ 2000 | ≤ 2000 | CC(=O)c1c(F)ccc2cc(O)cc(-c3nc4c5c(nc(OC[C@@H]6CCCN6C)nc5c3F)N(C(C)c3cccnc3N)CCO4)c12 (single isomer, unassigned) [Compound 750] |
| ≤ 2000 | ≤ 2000 | ≤ 2000 | ≤ 2000 | CO[C@H]1CCN(C)[C@@H]1COc1nc2c3c(c(C(F)(F)F)c(-c4ccc(F)c5sc(N)c(C#N)c45)c(F)c3n1)OCCN2[C@H](C)c1cccnc1N [Compound 673, 2-amino-4-(4-((R)-1-(2-aminopyridin-3-yl)ethyl)-10-fluoro-2-(((2R,3S)-3-methoxy-1-methylpyrrolidin-2-yl)methoxy)-8-(trifluoromethyl)-5,6-dihydro-4H-[1,4]oxazepino[5,6,7-de]quinazolin-9-yl)-7-fluorobenzo[b]thiophene-3-carbonitrile] |
| ≤ 2000 | ≤ 2000 | ≤ 2000 | ≤ 2000 | C[C@H](c1cc(C2CC2)cnc1N)N1CCOc2c(C(F)(F)F)c(-c3ccc(F)c4sc(N)c(C#N)c34)c(F)c3nc(OC[C@@]45CCCN4C[C@H](F)C5)nc1c23 [Compound 654, 2-amino-4-(4-((R)-1-(2-amino-5-cyclopropylpyridin-3-yl)ethyl)-10-fluoro-2-(((2R,7aS)-2-fluorotetrahydro-1H-pyrrolizin-7a(5H)-yl)methoxy)-8-(trifluoromethyl)-5,6-dihydro-4H-[1,4]oxazepino[5,6,7-de]quinazolin-9-yl)-7-fluorobenzo[b]thiophene-3-carbonitrile] |
| ≤ 2000 | ≤ 2000 | ≤ 2000 | ≤ 2000 | N#Cc1c(N)sc2c(F)ccc(-c3c(Cl)c4c5c(nc(OC[C@@]67CCCN6C[C@H](F)C7)nc5c3F)N(Cc3cccnc3N)C3COCC3CO4)c12 (mixture of isomers) [Compound 868, 2-amino-4-(12-((2-aminopyridin-3-yl)methyl)-6-chloro-4-fluoro-2-(((2R,7aS)-2-fluorotetrahydro-1H-pyrrolizin-7a (5H)-yl)methoxy)-8a,9,11a, 12-tetrahydro-8H, 11H-furo[3′,4′: 6,7][1,5]oxazocino[4,3,2-de]quinazolin-5-yl)-7-fluorobenzo[b]thiophene-3-carbonitrile] |
| ≤ 2000 | ≤ 2000 | ≤ 2000 | ≤ 2000 | Cc1c(F)c(N)cc(-c2nc3c4c(nc(OC[C@@]56CCCN5C[C@H](F)C6)nc4c2F)N([C@H](C)c2cccnc2N)CCO3)c1C(F)(F)F (single isomer, unassigned) [Compound 765] |
